Reference: patent publication US20030003086A1, “Modulation of MHC class I antigen presentation” (priority 2001, published 2003)

Key:
pure PSA = pure PSA (Homo sapiens, UniProt P55786); experiment: Degradation of FAPGNYPAL by pure PSA; assay type: biochemical; conditions: PSA at concentrations similar to those found in HeLa cells
TOP [1] = target: T1, TOP (Homo sapiens, UniProt P52888); experiment: Generation of SIINFEKL+Kb complexes in Kb-Cos7 cells loaded with ovalbumin and TOP inhibitor by hypertonic lysis of pinosomes (25D1 staining, flow cytometry); assay type: cell-based; conditions: cells transfected with TOP
T1 construct: was introduced into pTracer-transfected Kb-Cos7 cells; endogenous in cells; host or cells: Kb-Cos7 cells transfected with pTracer (GFP) only
T1 sequence (P52888 whole entry): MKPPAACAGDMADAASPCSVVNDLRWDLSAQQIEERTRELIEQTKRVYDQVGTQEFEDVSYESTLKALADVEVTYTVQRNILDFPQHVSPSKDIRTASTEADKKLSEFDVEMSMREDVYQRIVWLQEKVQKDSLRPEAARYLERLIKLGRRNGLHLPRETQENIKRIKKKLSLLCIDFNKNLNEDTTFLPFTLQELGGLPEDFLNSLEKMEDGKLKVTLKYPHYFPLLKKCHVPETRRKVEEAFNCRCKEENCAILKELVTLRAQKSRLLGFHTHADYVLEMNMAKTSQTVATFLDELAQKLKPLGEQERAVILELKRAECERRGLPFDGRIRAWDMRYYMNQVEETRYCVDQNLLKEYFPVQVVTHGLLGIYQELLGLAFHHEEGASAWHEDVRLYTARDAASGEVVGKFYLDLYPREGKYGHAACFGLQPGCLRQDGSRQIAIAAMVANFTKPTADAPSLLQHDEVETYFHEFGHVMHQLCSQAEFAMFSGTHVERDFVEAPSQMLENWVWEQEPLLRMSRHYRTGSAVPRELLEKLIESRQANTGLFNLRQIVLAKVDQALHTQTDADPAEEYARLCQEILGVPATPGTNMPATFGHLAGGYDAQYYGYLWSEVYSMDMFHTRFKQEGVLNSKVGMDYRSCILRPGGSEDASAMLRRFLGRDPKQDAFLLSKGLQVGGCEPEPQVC
Source text: (§1) To test whether TOP can influence antigen presentation, the effects of transiently overexpressing TOP in vivo on the presentation of SIINFEKL (SEQ ID NO:5) peptide produced in the cytoplasm from a synthetic minigene were studied. In one set of experiments, expression vectors encoding TOP and SIINFEKL were transiently co-transfected into Kbexpressing COS7 cells. The presentation of SIINFEKL on MHC class I Kb molecules was detected by staining with a SIlNFEKL+Kb-specific monoclonal antibody (25D1) (Porgador et al., 1997, Immunity. 6:715-726) and quantified by flow cytometry. Briefly, Kb-Cos7 cells were co-transfected with a SIINFEKL minigene in pCDNA3 and a pTracer plasmid encoding green fluorescence protein (GFP), GFP+human TOP or GFP+ORP 150 (a control protein) using FuGENE™ (Roche Applied Science). After 48 hours, the cells were stained with an anti-SIINFEKL+Kb specific nAb (25D1) (Porgador et al., 1997, supra) followed by pbycoerythrin-conjugated anti-immunoglobulin antibody and fluorescence was measured by flow fluorocytometry. […]
(§2) The data of FIG. 3C were generated in experiments in which ovalbumin (40 mg/ml) admixed with either the TOP inhibitor cPP-AAF-pAB (1 mM) or vehicle (DMSO) was introduced into pTracer-transfected Kb-Cos7 cells. After two hours the presence of SIINFEKL+Kb complexes was determined by immunofluorescence as described for FIG. 1A (supra). […]

TOP [2] = experiment: as above; assay type: cell-based; conditions: Kb-Cos7 cells not overexpressing TOP; ovalbumin 40 mg/ml, inhibitor 1 mM, two hours; FIG. 3C
Source text: as §1, §2

living cells = conditions: cited from earlier work

Chain of pure PSA (P55786 whole entry): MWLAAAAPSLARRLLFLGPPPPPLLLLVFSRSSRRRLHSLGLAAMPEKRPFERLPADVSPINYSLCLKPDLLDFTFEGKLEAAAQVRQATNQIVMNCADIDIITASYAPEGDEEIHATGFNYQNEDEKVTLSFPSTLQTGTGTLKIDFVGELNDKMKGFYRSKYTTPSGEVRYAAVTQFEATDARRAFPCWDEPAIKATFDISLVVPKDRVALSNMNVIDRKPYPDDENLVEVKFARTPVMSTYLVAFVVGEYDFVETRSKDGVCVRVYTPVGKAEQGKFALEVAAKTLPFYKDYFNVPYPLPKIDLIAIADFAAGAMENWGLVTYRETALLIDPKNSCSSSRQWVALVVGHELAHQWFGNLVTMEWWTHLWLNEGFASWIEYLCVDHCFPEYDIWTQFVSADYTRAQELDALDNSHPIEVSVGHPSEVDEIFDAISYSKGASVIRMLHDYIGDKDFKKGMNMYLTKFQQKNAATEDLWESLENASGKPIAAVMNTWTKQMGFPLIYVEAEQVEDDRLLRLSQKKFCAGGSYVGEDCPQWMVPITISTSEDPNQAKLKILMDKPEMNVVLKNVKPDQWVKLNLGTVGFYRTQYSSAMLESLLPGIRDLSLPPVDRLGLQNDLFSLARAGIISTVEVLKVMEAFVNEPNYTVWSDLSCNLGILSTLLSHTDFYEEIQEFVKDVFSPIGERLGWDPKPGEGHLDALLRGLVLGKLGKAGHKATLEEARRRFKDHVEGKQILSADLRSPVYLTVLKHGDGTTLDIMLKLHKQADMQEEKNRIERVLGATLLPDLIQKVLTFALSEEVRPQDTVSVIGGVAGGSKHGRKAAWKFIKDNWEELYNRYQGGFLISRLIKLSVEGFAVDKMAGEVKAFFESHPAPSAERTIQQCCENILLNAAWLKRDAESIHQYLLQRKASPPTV

Substance	susceptibility to degradation by pure PSA (pure PSA)	generation of SIINFEKL-Kb complexes (MHC class I presentation) (TOP [1])	generation of SIINFEKL-Kb complexes (MHC class I presentation) (TOP [2])	entry into living cells / cell cytosol (living cells)
FAPGNYPAL [antigenic peptide, Sendai Virus NP, residues 324-332]	particularly susceptible to degradation			
N-(1(RS)-carboxy-3-phenylpropyl)-Ala-Ala-Tyr-p-aminobenzoate [cPP-AAF-PAB]		enhanced	enhanced	does not enter living cells
